Where “and” joins values, the source holds several entries; their conditions need not be identical. Equal values may be shown once. Read-outs that look alike come from different tables or passages of the source. Square brackets hold non-standard residues; d marks the D form. Peptide text beside a SMILES is read from it. Gly(N-(CH2)3-guanidino) = N=C(N)NCCCNCC(=O)O; Dap = NC[C@H](N)C(=O)O
Assays:
mMC4R [1] = biological target: T1, mMC4R (Mus musculus, UniProt P56450); assay: cell-based
mMC3R [2] = biological target: T2, mMC3R (Mus musculus, UniProt P33033); details: for mMC3R pA2: antagonist, Schild analysis with NDP-MSH
T2 sequence (P33033 whole entry): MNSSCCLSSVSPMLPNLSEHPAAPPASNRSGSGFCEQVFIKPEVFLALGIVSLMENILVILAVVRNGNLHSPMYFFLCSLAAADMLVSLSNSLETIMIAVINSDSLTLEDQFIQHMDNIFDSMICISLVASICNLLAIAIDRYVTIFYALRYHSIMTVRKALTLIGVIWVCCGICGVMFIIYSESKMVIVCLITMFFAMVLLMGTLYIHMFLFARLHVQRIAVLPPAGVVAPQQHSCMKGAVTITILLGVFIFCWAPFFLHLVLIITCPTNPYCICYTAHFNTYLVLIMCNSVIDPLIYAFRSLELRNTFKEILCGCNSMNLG

mMC5R [3] = biological target: T3, mMC5R (Mus musculus, UniProt P41149); details: for mMC5R pA2: antagonist, Schild analysis with NDP-MSH, ± SEM, reported herein for the first time
T3 sequence (P41149 whole entry): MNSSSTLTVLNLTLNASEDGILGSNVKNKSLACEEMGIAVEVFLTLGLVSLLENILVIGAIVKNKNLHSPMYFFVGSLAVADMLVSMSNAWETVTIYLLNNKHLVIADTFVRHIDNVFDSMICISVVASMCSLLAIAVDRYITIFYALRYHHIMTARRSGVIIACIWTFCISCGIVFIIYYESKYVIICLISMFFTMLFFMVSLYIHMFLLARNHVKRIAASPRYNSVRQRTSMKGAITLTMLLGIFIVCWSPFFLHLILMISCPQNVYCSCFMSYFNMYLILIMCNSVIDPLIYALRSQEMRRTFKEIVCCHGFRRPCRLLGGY

mMC3R [4] = biological target: T2, mMC3R; details: compounds 1 and 2, previously reported, cited from earlier work; for mMC3R pA2: antagonist
hMC4R [5] = biological target: T4, hMC4R (Homo sapiens, UniProt P32245); assay: cAMP AlphaScreen bioassay, HEK293 cells stably expressing hMC4R; assay type: cell-based; set-up: expressed in transfected cells; details: for Observed Inverse Agonism?: hMC4R, cAMP; for hMC4R pA2: antagonist pA2, Schild analysis with agonist NDP-MSH, ± SEM, <5.0 = no antagonist potency up to 10,000 nM
T4 sequence (P32245 whole entry): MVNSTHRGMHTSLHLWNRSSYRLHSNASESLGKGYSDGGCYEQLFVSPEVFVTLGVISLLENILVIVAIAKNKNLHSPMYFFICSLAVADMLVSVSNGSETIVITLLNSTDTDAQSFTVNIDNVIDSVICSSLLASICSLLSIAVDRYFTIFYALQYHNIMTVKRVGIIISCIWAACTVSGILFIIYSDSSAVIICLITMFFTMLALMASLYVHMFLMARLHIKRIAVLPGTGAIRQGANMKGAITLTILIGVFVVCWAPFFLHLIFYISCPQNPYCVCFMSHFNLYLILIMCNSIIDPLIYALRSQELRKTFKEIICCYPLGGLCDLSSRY

mMC5R [6] = biological target: T3, mMC5R; set-up: expressed in transfected cells; details: compounds 1 and 2, previously reported; cited from earlier work
mMC1R [7] = biological target: T5, mMC1R (Mus musculus, UniProt Q01727); assay: cAMP AlphaScreen bioassay, HEK293 cells stably expressing mMC1R; details: for mMC1R percent maximal stimulatory response: @ 100 μM, EC50 not determinable; for EC50: read-out: mMC1R EC50, ± SEM, >100,000 = no agonist activity up to 100 μM
T5 sequence (Q01727 whole entry): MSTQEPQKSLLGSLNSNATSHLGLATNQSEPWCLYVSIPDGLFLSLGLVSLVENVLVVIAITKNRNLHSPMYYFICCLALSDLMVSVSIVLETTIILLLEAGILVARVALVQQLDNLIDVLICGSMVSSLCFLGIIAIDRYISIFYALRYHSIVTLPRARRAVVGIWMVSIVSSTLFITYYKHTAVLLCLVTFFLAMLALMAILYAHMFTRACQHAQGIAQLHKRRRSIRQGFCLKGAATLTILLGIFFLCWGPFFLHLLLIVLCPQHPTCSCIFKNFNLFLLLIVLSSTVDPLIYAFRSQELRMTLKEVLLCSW

mMC4R [8] = biological target: T1, mMC4R; details: for mMC4R pA2: antagonist, Schild analysis with NDP-MSH, <5.0 = no antagonist potency up to 10,000 nM
mMC1R [9] = biological target: T5, mMC1R; assay: 125I-NDP-MSH competitive binding assay, transfected HEK293 cells, mMC1R; details: binding IC50 versus control 1 (Asn) or 2 (Dap)
mMC4R [10] = biological target: T1, mMC4R; assay: 125I-NDP-MSH competitive binding assay, transfected HEK293 cells, mMC4R; details: binding IC50 versus control 1 (Asn) or 2 (Dap)
hMC4R [11] = biological target: T4, hMC4R; assay: 125I-NDP-MSH competitive binding assay, transfected HEK293 cells, hMC4R; details: binding IC50 versus control 1 (Asn) or 2 (Dap)
MC5R = MC5R (Homo sapiens, UniProt P33032); details: chemically synthetized AgRP ligands, Yang et al. 1999, cited from earlier work
Sequence of MC5R (P33032 whole entry, species assumed): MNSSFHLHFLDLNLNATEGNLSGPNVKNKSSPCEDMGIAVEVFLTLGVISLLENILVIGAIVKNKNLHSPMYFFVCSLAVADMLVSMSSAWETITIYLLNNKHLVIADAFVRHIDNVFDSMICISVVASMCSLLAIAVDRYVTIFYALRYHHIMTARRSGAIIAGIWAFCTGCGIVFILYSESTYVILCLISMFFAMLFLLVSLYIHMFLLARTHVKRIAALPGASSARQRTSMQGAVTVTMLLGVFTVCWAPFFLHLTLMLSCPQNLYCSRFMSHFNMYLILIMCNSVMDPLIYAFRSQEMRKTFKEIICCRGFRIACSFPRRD

mMC3R [12] = biological target: T2, mMC3R; assay: 125I-NDP-MSH competitive binding assay, transfected HEK293 cells, mMC3R; details: binding IC50 versus control 1 (Asn) or 2 (Dap)
mMC5R [13] = biological target: T3, mMC5R; assay: 125I-NDP-MSH competitive binding assay, transfected HEK293 cells, mMC5R; details: binding IC50 versus control 1 (Asn) or 2 (Dap)
[14] = Example 2, ± SEM, <5.5 = no antagonist potency up to 10,000 nM
[15] = Example 1, agonist, ± SEM, >100,000 = no agonist activity up to 100 μM
[16] = Example 1, ± SEM, <5.0 = no antagonist potency up to 10,000 nM

T1 sequence (P56450 whole entry): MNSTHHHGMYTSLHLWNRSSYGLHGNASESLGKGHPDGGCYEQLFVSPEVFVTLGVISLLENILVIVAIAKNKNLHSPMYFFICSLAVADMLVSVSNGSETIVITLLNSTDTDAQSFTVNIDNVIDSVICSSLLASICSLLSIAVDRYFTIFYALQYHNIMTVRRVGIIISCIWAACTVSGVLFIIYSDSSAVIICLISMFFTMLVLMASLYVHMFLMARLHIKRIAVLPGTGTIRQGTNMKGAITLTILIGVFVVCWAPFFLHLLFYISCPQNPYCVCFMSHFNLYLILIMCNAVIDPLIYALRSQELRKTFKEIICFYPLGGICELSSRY

Compound	Observed Inverse Agonism? (hMC4R [5])	mMC4R pA2 (mMC4R [8]; Example 1, ± SEM)	hMC4R pA2 (hMC4R [5])	mMC1R Fold Diff (mMC1R [9])	mMC4R Fold Diff (mMC4R [10])	hMC4R Fold Diff (hMC4R [11])	mMC3R pA2 (mMC3R [2]; [16])	mMC3R Fold Diff (mMC3R [12])	other results
C[C@@H]1NC(=O)[C@H](CN)NC(=O)[C@H](Cc2ccccc2)NC(=O)[C@H](Cc2ccccc2)NC(=O)CN(CCCNC(=N)N)C(=O)[C@@H]2CCCN2C(=O)[C@H]2CCCN2C(=O)[C@H](Cc2ccccc2)NC1=O [MDE8-108-3c, c[Pro-NArg-Phe-Phe-Dap-Ala-Phe-DPro]] (cyclo([Gly(N-(CH2)3-guanidino)]FF[Dap]AF[dP]P))									Kb (mMC4R [1]): 3.16 µM
C[C@@H]1NC(=O)[C@H](CN)NC(=O)[C@H](Cc2ccccc2)NC(=O)[C@H](Cc2ccccc2)NC(=O)[C@H](CCCNC(=N)N)NC(=O)[C@@H]2CCCN2C(=O)[C@H]2CCCN2C(=O)[C@H](Cc2ccccc2)NC1=O [MDE 6-82-1c, c[Pro-Arg-Phe-Phe-Dap-Ala-Phe-DPro]]	Yes								mMC3R percent maximal stimulatory response (mMC3R [2]; Example 2, @ 100 μM): 20% @; mMC3R pA2 (mMC3R [2]; [14]): 6.5; mMC3R pA2 (mMC3R [2]; Example 2, ± SEM, <5.5 = no antagonist potency up to 10,000 nM, listed as MDE6-82-1c): 6.5 ± 0.3; mMC5R pharmacology observed (Partial Agonist / Inverse Agonist) (mMC5R [3]; Example 2): Inverse; mMC5R inverse agonist, percent decrease from basal (mMC5R [3]; Example 2, basal to plateau signal, sigmoidal dose-response): −10%; EC50 (mMC3R [4]; agonist): > 100 µM; mMC3R pA2 (mMC3R [4]): 6.5 and 6.5 ± 0.09; mMC3R pA2 (mMC3R [4]; listed as MDE6-82-1c): 6.5-7.2; mMC5R inverse agonist, percent decrease from basal (mMC5R [6]): −15%; mMC5R pharmacology observed in agonist assay (Inverse Agonist) (mMC5R [6]): Inverse; mMC1R percent maximal stimulatory response (mMC1R [7]; Example 2): 36% @
C[C@@H]1NC(=O)[C@H](CC(N)=O)NC(=O)[C@H](Cc2ccccc2)NC(=O)[C@H](Cc2ccccc2)NC(=O)[C@H](CS)NC(=O)[C@@H]2CCCN2C(=O)[C@H]2CCCN2C(=O)[C@H](Cc2ccccc2)NC1=O [ZMK 3-18, c[Pro-Cys-Phe-Phe-Asn-Ala-Phe-DPro]] (cyclo(PCFFNAF[dP]))	No	5.9	5.8 and 5.8 ± 0.2	3	90	300			mMC3R EC50 (nM) (mMC3R [2]; [15]): unable to stimulate; mMC4R EC50 (nM) (mMC4R [8]; [15]): unable to stimulate; mMC5R pharmacology observed in agonist assay (Inverse Agonist) (mMC5R [3]; Example 1): inverse agonist activity; mMC5R inverse agonist, percent change from basal (mMC5R [3]; Example 1, @ 100 μM, no sigmoidal dose-response curve): −32%; mMC1R percent maximal stimulatory response (mMC1R [7]; Example 1, relative to NDP-MSH signal): 46%
AgRP: agouti-related protein, endogenous MC3R and MC4R antagonist and MC4R inverse agonist	Yes								IC50 (MC5R; read-out: IC50, displacement of radiolabeled NDP-MSH at the MC5R): 310 nM; IC50 (MC5R; read-out: IC50, displacement of radiolabeled AgRP at the MC5R): 26 nM
C[C@@H]1NC(=O)[C@H](CN)NC(=O)[C@H](Cc2ccccc2)NC(=O)[C@H](Cc2ccccc2)NC(=O)[C@H](Cc2c[nH]cn2)NC(=O)[C@@H]2CCCN2C(=O)[C@H]2CCCN2C(=O)[C@H](Cc2ccccc2)NC1=O [ZMK 2-99, c[Pro-His-Phe-Phe-Dap-Ala-Phe-DPro]] (cyclo(PHFF[Dap]AF[dP]))	No	6.0 and 6.0 ± 0.1	6.4 and 6.4 ± 0.09	5	500	400	5.4 and 5.4 ± 0.1	5	mMC5R Fold Diff (mMC5R [13]): 7
C[C@@H]1NC(=O)[C@H](CC(N)=O)NC(=O)[C@H](Cc2ccccc2)NC(=O)[C@H](Cc2ccc(O)cc2)NC(=O)[C@H](CCCNC(=N)N)NC(=O)[C@@H]2CCCN2C(=O)[C@H]2CCCN2C(=O)[C@H](Cc2ccccc2)NC1=O [ZMK 2-110, c[Pro-Arg-Tyr-Phe-Asn-Ala-Phe-DPro]] (cyclo(PRYFNAF[dP]))	Yes	6.1 and 6.1 ± 0.03	6.5 and 6.5 ± 0.2		100	2000	5.8 and 5.8 ± 0.2		mMC5R pharmacology observed in agonist assay (Inverse Agonist) (mMC5R [3]; Example 1): Inverse
C[C@@H]1NC(=O)[C@H](CN)NC(=O)[C@H](Cc2ccccc2)NC(=O)[C@H](Cc2ccc(O)cc2)NC(=O)[C@H](CCCNC(=N)N)NC(=O)[C@@H]2CCCN2C(=O)[C@H]2CCCN2C(=O)[C@H](Cc2ccccc2)NC1=O [ZMK 2-112, c[Pro-Arg-Tyr-Phe-Dap-Ala-Phe-DPro]] (cyclo(PRYF[Dap]AF[dP]))	Yes	7.3 and 7.3 ± 0.1	7.5 and 7.5 ± 0.2	4	70	100	6.5 and 6.5 ± 0.1	9	mMC5R pA2 (mMC5R [3]; Example 1): 6.5 and 6.5 ± 0.2; mMC5R Fold Diff (mMC5R [13]): 20
CC(C)[C@@H]1NC(=O)[C@H](CN)NC(=O)[C@H](Cc2ccccc2)NC(=O)[C@H](Cc2ccccc2)NC(=O)[C@H](CCCNC(=N)N)NC(=O)[C@@H]2CCCN2C(=O)[C@H]2CCCN2C(=O)[C@H](Cc2ccccc2)NC1=O [ZMK 2-85, c[Pro-Arg-Phe-Phe-Dap-Val-Phe-DPro]]	Yes	7.5	7.6 and 7.6 ± 0.06				6.1 and 6.1 ± 0.03		mMC5R pA2 (mMC5R [3]; Example 1): 6.3 and 6.3 ± 0.03
C[C@@H]1NC(=O)[C@H](CC(N)=O)NC(=O)[C@H](Cc2ccccc2)NC(=O)[C@H](Cc2ccccc2)NC(=O)[C@H](Cc2c[nH]cn2)NC(=O)[C@@H]2CCCN2C(=O)[C@H]2CCCN2C(=O)[C@H](Cc2ccccc2)NC1=O [ZMK 2-96, c[Pro-His-Phe-Phe-Asn-Ala-Phe-DPro]] (cyclo(PHFFNAF[dP]))	Yes	5.3 and 5.3 ± 0.1	5.8 and 5.8 ± 0.2		300	300			
CC(C)[C@@H]1NC(=O)[C@H](CC(N)=O)NC(=O)[C@H](Cc2ccccc2)NC(=O)[C@H](Cc2ccccc2)NC(=O)[C@H](CCCNC(=N)N)NC(=O)[C@@H]2CCCN2C(=O)[C@H]2CCCN2C(=O)[C@H](Cc2ccccc2)NC1=O [ZMK 2-82, c[Pro-Arg-Phe-Phe-Asn-Val-Phe-DPro]] (cyclo(PRFFNVF[dP]))	Yes	7.2 and 7.2 ± 0.1	7.7	2	2	3	5.9 and 5.9 ± 0.1	3	mMC4R percent maximal stimulatory response (mMC4R [8]; Example 1, @ 100 μM, relative to NDP-MSH signal): 16% @; mMC5R pA2 (mMC5R [3]; Example 1): 6.1 and 6.1 ± 0.09; hMC4R pA2 (hMC4R [5]; listed as AMK 2-82): 7.8 ± 0.03; mMC5R Fold Diff (mMC5R [13]): 2
C[C@@H]1NC(=O)[C@H](CN)NC(=O)[C@H](Cc2ccccc2)NC(=O)[C@H](Cc2ccccc2)NC(=O)[C@H](CS)NC(=O)[C@@H]2CCCN2C(=O)[C@H]2CCCN2C(=O)[C@H](Cc2ccccc2)NC1=O [ZMK 3-20, c[Pro-Cys-Phe-Phe-Dap-Ala-Phe-DPro]] (cyclo(PCFF[Dap]AF[dP]))	No			6	5200	2100		15	hMC4R agonist stimulation (hMC4R [5]; up to 100 μM concentrations): unable to stimulate; mMC1R stimulation of the receptor, % of the NDP-MSH control (mMC1R [7]; full agonist, maximal stimulation): 98%; EC50 (mMC1R [7]; Example 1, agonist): 4000 nM
C[C@@H]1NC(=O)[C@H](CC(N)=O)NC(=O)[C@H](Cc2ccccc2)NC(=O)CN(Cc2ccccc2)C(=O)[C@H](CCCNC(=N)N)NC(=O)[C@@H]2CCCN2C(=O)[C@H]2CCCN2C(=O)[C@H](Cc2ccccc2)NC1=O [MDE9-77c, c[Pro-Arg-NPhe-Phe-Asn-Ala-Phe-DPro]]									mMC3R pA2 (mMC3R [2]; [14]): 5.8 ± 0.1; mMC5R pharmacology observed (Partial Agonist / Inverse Agonist) (mMC5R [3]; Example 2): Inverse; mMC5R inverse agonist, percentage change from basal (mMC5R [3]; Example 2, @ 100 μM, no sigmoidal dose-response curve): −10% @; EC50 (mMC1R [7]; Example 2 (Table 7, first EC50 column)): 240 nM

Reference: patent publication US20210179666A1, “CYCLIC PEPTIDES AND METHODS OF USE THEREOF” (Regents of the University of Minnesota, priority 2019, published 2021)
